Laboratory results published in US9181193B2, “Indenoquinolone compound, preparation method and use thereof” (Second Military Medical University, PLA, priority 2010, dated 2015).

Key:
Type in all cases: cell-based
[1] = tested on: HepG2 (human hepatoma cells); experiment: MTT in vitro anti-tumor activity test, HepG2
[2] = tested on: MDA-MB-435 (human breast cancer cells); experiment: MTT in vitro anti-tumor activity test, MDA-MB-435
[3] = tested on: A549 (human lung cancer cells); experiment: MTT in vitro anti-tumor activity test, A549
[4] = tested on: Colo205 (human colon cancer cells); experiment: MTT in vitro anti-tumor activity test, Colo205
[5] = HepG2 human hepatoma cells, MTT, 72 h
[6] = MDA-MB-435, 100 μg/mL, MTT, 72 h
[7] = MDA-MB-435 human breast cancer cells, MTT, 72 h
[8] = A549 human lung cancer cells, MTT, 72 h
[9] = Colo205 human colon cancer cells, MTT, 72 h
[10] = MTT assay, 72 h incubation, HepG2 cells
[11] = inhibition at 100 μg/mL, MTT assay, 72 h, HepG2 cells
[12] = MTT assay, 72 h incubation, MDA-MB-435 cells
[13] = inhibition at 100 μg/mL, MTT assay, 72 h, MDA-MB-435 cells
[14] = MTT assay, 72 h incubation, A549 cells
[15] = inhibition at 100 μg/mL, MTT assay, 72 h, A549 cells
[16] = MTT assay, 72 h incubation, Colo205 cells
[17] = inhibition at 100 μg/mL, MTT assay, 72 h, Colo205 cells

SMILES	HepG2 100 μg/mL IC % ([1]; HepG2, 100 μg/mL, MTT, 72 h) [%]	HepG2 IC50 [1, 5] [µg/mL]	MDA-MB-435 100 μg/mL IC % [2, 6] [%]	MDA-MB-435 IC50 [2, 7] [µg/mL]	A549 100 μg/mL IC % ([3]; A549, 100 μg/mL, MTT, 72 h) [%]	A549 IC50 [3, 8] [µg/mL]	Colo205 100 μg/mL IC % ([4]; Colo205, 100 μg/mL, MTT, 72 h) [%]	Colo205 IC50 [4, 9] [µg/mL]	HepG2 IC50 [1, 10] [µg/mL]	HepG2 100 μg/mL IC % [1, 11] [%]	MDA-MB-435 IC50 [2, 12] [µg/mL]	MDA-MB-435 100 μg/mL IC % [2, 13] [%]	A549 IC50 [3, 14] [µg/mL]	A549 100 μg/mL IC % [3, 15] [%]	Colo205 IC50 [4, 16] [µg/mL]	Colo205 100 μg/mL IC % [4, 17] [%]
COc1ccc2c(c1)C(=O)c1c-2c(OCCN2CCOCC2)nc2ccccc12 [Compound 5]	13.97	>100	19.75	>100	48.72	>100	43.88	>100	–	–	–	–	–	–	–	–
COc1ccc2c(c1)C(=O)c1c-2c(OCCCN(C)C)nc2cc(OC)c(OC)cc12 [Compound 25]	89.70	1.58	85.38	2.66	100	2.02	90.36	1.15	–	–	–	–	–	–	–	–
COc1cc2nc(OCCN(C)C)c3c(c2cc1OC)C(=O)c1cc(Cl)ccc1-3 [Compound 26]	97.91	11.27	100	10.51	100	6.89	100	1.45	–	–	–	–	–	–	–	–
COc1cc2nc(OCCn3ccnc3)c3c(c2cc1OC)C(=O)c1cc(Cl)ccc1-3 [Compound 27]	57.51	56.61	51.23	91.52	35.12	>100	66.27	25.50	–	–	–	–	–	–	–	–
COc1ccc2c(c1)C(=O)c1c-2c(=O)n(CCN2CCCC2)c2ccccc12 [Compound 32]	–	–	–	–	–	–	–	–	6.92	70.03	10.73	96.48	8.58	92.32	7.45	92.85
COc1ccc2c(c1)C(=O)c1c-2c(OCCN2CCCC2)nc2ccccc12 [Compound 3]	80.79	24.99	100	26.55	99.90	14.39	92.33	10.97	–	–	–	–	–	–	–	–
COc1ccc2c(c1)C(=O)c1c-2c(=O)n(CCN2CCOCC2)c2cc(OC)c(OC)cc12 [Compound 45]	–	–	–	–	–	–	–	–	6.27	84.31	7.86	72.95	37.85	62.84	16.76	66.89
COc1ccc2nc(OCCn3ccnc3)c3c(c2c1)C(=O)c1cc(Br)ccc1-3 [Compound 19]	37.50	>100	59.37	42.24	17.66	>100	80.89	18.70	–	–	–	–	–	–	–	–
